From PubChem BioAssay (NCI)
“And” between values parts separate entries of the source, which are not always exact repeats. Equal values may be shown once.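 Method: 48-hour compound exposure of cells in 96-well plates, five concentrations, linear interpolation of endpoints. At the GI50, growth is halved. Definition used: TGI = concentration required for complete inhibition of growth.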

Columns and labels:
Experiment in all cases: NCI-60 cell line screen, 48 h
CAKI-1 renal = system: CAKI-1 renal
HOP-92 NSCLC = system: HOP-92 NSCLC
MDA-MB-435 = system: MDA-MB-435
OVCAR-4 ovarian = system: OVCAR-4 ovarian
NCI-H460 lung = system: NCI-H460 lung
BT-549 breast = system: BT-549 breast
HCC-2998 colon = system: HCC-2998 colon
HCT-116 colon = system: HCT-116 colon
OVCAR-5 ovarian = system: OVCAR-5 ovarian
SK-MEL-2 melanoma = system: SK-MEL-2 melanoma

Row | SMILES | GI50 (CAKI-1 renal) | TGI (CAKI-1 renal) | GI50 (HOP-92 NSCLC) | TGI (HOP-92 NSCLC) | GI50 (MDA-MB-435) | TGI (MDA-MB-435) | GI50 (OVCAR-4 ovarian) | TGI (OVCAR-4 ovarian) | GI50 (NCI-H460 lung) | TGI (NCI-H460 lung) | GI50 (BT-549 breast) | TGI (BT-549 breast) | GI50 (HCC-2998 colon) | TGI (HCC-2998 colon) | GI50 (HCT-116 colon) | TGI (HCT-116 colon) | GI50 (OVCAR-5 ovarian) | TGI (OVCAR-5 ovarian) | GI50 (SK-MEL-2 melanoma) | TGI (SK-MEL-2 melanoma)
1 | Cc1cccc2c3c(sc12)C(c1ccc(F)cc1)C(C#N)=C(N)O3 (stereo unspecified) | 0.0466 µM | 12.5 µM | 1070 nM | 8.26 µM | 0.0222 µM | 0.0514 µM | 528 nM | 17.1 µM | 0.0537 µM | 2.52 µM | 0.297 µM | 3.18 µM | 0.311 µM | 9.75 µM | 0.052 µM | 3.43 µM | 325 nM | 12.8 µM | 1.7 µM | 21.6 µM
2 | NC(=O)c1sc(-n2cnc3cc(C(F)(F)F)ccc32)cc1OCc1ccccc1Br | > 25 µM | > 25 µM | 8020 nM | > 25 µM | > 16.5 µM | > 25 µM | 9020 nM | > 25 µM | > 19.6 µM | > 25 µM | > 25 µM | > 25 µM | > 25 µM | > 25 µM | > 16 µM | > 25 µM | > 25000 nM | > 25 µM | > 25 µM | > 25 µM
3 | CCSC[C@@H]1C[C@](O)(c2ccc(F)cc2)[C@@H](c2ccc(F)cc2)O1 | 18.2 µM | 39.7 µM | 15200 nM | 28.6 µM | 17.7 µM | 37.8 µM | 16300 nM | 32.5 µM | 14.8 µM | 30.2 µM | 16.8 µM | 30.9 µM | 18.8 µM | 36.6 µM | 12.1 µM | 29.2 µM | 20200 nM | 37.9 µM | 19.8 µM | 42 µM
4 | COc1ccc2c(c1)-c1nn(CCCN(C)C)c3ccc([N+](=O)[O-])c(c13)N2 | – | 4.63 µM and 6.34 µM | 192 nM and 764 nM | 1.77 µM and 4.97 µM | 0.165 µM and 0.593 µM | 2.9 µM | 234 nM and 649 nM | 1.18 µM and 2 µM | 0.103 µM and 0.27 µM | 1.21 µM and 3.06 µM | – | 7.19 µM | 0.148 µM and 0.728 µM | 1.73 µM and 12.2 µM | – | 4.02 µM and 4.42 µM | 356 nM and 1350 nM | 3.46 µM and 9.7 µM | – | 4.28 µM and 4.55 µM
5 | CC(=O)O[C@H]1CC[C@@]2(C)C(=C/C(=N/OCCN3CCCC3)[C@H]3[C@@H]4CC[C@H](OC(C)=O)[C@@]4(C)CC[C@@H]32)C1 | > 100 µM | > 100 µM | 16700 nM | 96.5 µM | 53 µM | > 100 µM | > 100000 nM | > 100 µM | 24.8 µM | 52.1 µM | 53.4 µM | > 100 µM | 45 µM | > 100 µM | 27.8 µM | > 100 µM | 73800 nM | > 100 µM | 26.3 µM | 65 µM
6 | COc1ccc(-c2csc(NC(=O)CN3CCN(c4cc5c(cc4F)c(=O)c(C(=O)O)cn5C4CC4)CC3)n2)cc1 | 3.57 µM | > 100 µM | 2820 nM | 7.17 µM | 3.39 µM | > 100 µM | – | – | 3.18 µM | > 100 µM | 3.03 µM | > 100 µM | 4.8 µM | > 100 µM | 3.1 µM | > 100 µM | – | – | 2.58 µM | 8.28 µM
7 | CCC(C)C(=O)OCC(=O)c1ccc(-c2ccccc2)cc1 (stereo unspecified) | – | > 100 µM | – | > 100 µM | – | > 100 µM | – | – | – | > 100 µM | – | > 100 µM | – | > 100 µM | – | > 100 µM | – | > 100 µM | – | > 100 µM
